Measurements: article PMC8018184, “Evaluation of the Pharmacophoric Role of the O–O Bond in Synthetic Antileishmanial Compounds: Comparison between 1,2-Dioxanes and Tetrahydropyrans” (Journal of Medicinal Chemistry, 2020)

Tests used:
[1] = system: L. donovani promastigotes (MHOM/NP/02/BPK282/0cl4); assay: Promastigote growth inhibition assay (alamarBlue); assay type: cell-based; conditions: Leishmania donovani, HOMEM with 10% FBS
[2] = Cytotoxicity test on THP-1 cells (alamarBlue); assay type: cell-based; conditions: human, THP-1 cells (acute monocytic leukemia cell line); CSV supplement; read-out: CC50 against human acute monocytic leukemia cell line (THP-1)
Description: (§1) Vero cells (kidney of African green monkey epithelial cell line) were cultured at 37 °C in the MEM liquid medium supplemented with 10% FBS (EuroClone SpA), 1% levoglutamine (EuroClone SpA), and 1% penicillin–streptomycin (EuroClone SpA). THP-1 cells (human leukemia monocytic cell line) were cultured at 37 °C in the RPMI 1640 (EuroClone SpA) liquid medium supplemented with 10% FBS (EuroClone SpA), 1% levoglutamine (EuroClone SpA), 1% penicillin–streptomycin, and mercaptoethanol (Gibco) 50 μM.
(§2) The cytotoxicity of the compounds was determined using mammalian kidney epithelial cells (Vero cell line) and human acute monocytic leukemia cell line (THP-1). Cells were seeded (10^5 cells mL^–1) on 96-well plates with the complete MEM medium and incubated with test compounds at 37 °C in a 5% CO2 incubator. After 72 h of incubation, 20 μL of the alamarBlue reagent was added to each well and incubated at 37 °C for 24 h. Reduction of resazurin to resorufin was evaluated after 24 h by absorbance measurement at the Multiskan ascent plate reader (Thermo Fisher Scientific Inc.,) at 550 and 630 nm. […] Each experiment was performed in duplicate.
Cytotoxicity in THP-1 cell line
We performed additional cytotoxicity tests employing THP-1 cell line. We also calculated the
corresponding selectivity indexes, as the ratio between CC50 of THP-1 cell line and IC50 on amastigotes
THP-1 cells than on VERO cells; thus showing a not significant variance of selectivity index.
Table S3. Inhibitory activity of tetrahydropyrans 3 and endoperoxides 2 against amastigotes of L.
donovani, cytotoxicity in human acute monocytic leukemia cell line (THP-1) and selectivity index (SI).
Tetrahydropyran IC50 CC50 Endoperoxide IC50 CC50
a (µM)b (µM)c a (µM)b (µM)c
a Compounds tested as racemates. b IC50 represents the concentration of a compound that causes 50% growth inhibition.
Results represent the mean (± standard deviation, SD) of three independent experiments performed in duplicate. c CC50
represents 50% cytotoxic concentration on THP-1 cells. d Selectivity index (SI) = CC50/IC50. […]

[3] = system: L. donovani promastigotes; assay: Promastigote growth inhibition in the presence of an iron chelator (DFO or DFP), isobologram; assay type: cell-based, Leishmania donovani; conditions: for Interaction with the iron chelator DFP (isobologram, FIC): FIC values > 0.5 and < 4; for IC50: Leishmania donovani, no DFO, read-out: IC50 against promastigotes, absence of DFO; for Interaction with the iron chelator DFO (isobologram, ΣFIC): synergism <0.5, antagonism >4.0, else additivity
Description: At first, we determined IC50 and CC50 values of the iron chelator DFO (187 and >400 μM, respectively). Then, the effect of the iron chelator presence on the bioactivity of the two compounds was studied by coincubating 2a and 3a with DFO at different concentrations. The variation of IC50 of the compounds in relation to the different doses of DFO was determined by the alamarBlue assay (Table 3), and the isobole technique was employed to depict the interactions of 2a and 3a with DFO (Figure 6).
The isobole technique was used for depicting synergistic or antagonistic interaction between the iron chelator and the two compounds on the parasite growth (Figure 6). Combinations are expressed as the sum of the fractional inhibitory concentrations (ΣFIC), and FIC values are defined as synergism (<0.5), antagonism (>4.0), and additivity (no interaction). The strength of synergism (or antagonism) is indicated by the degree of deviation from the line of additivity.
[…]. Each compound was added using a concentration range including the IC50 of each compound. Each experiment was performed in duplicate. The viability of the parasites was determined by the alamarBlue assay. The fractional inhibitory concentration (FIC; FIC = IC50 of the drug in the combination/IC50 of the drug when tested alone) of each compound was calculated and plotted as an isobologram.

[4] = system: ROS in L. donovani promastigotes; assay: Evaluation of intracellular ROS levels (H2DCFDA fluorescence); assay type: cell-based, Leishmania donovani; conditions: for Intracellular ROS levels compared to negative control (untreated promastigotes): compound at its IC50, 24 h, H2DCFDA; for ROS production compared to positive controls: compound at its IC50, H2O2 20 μM, miltefosine 22 μM
Description: We evaluated the ability of our synthetic compounds to generate reactive oxygen species (ROS) in L. donovani promastigotes. We selected the endoperoxide 2a and the tetrahydropyran 3a as model substrates, which were administered to the parasites in the presence of 2,7-dichlorodihydrofluorescein diacetate (H2DCFDA), a live-cell-permeable dye, which is oxidized by ROS, providing a fluorescent compound (DCF) (see Experimental Section for details).[103] Therefore, the resultant fluorescence is a direct measure of the amount of ROS generated.
To monitor the effect of the compounds on the production of ROS in promastigotes of L. donovani, an oxidant-sensitive green fluorescent dye (2,7-dichlorofluorescein diacetate, H2DCFDA) was used. […] Subsequently, parasitic cells were washed in PBS (pH 7.4), loaded with 10 μM permeant probe H2DCFDA (Sigma, St. Louis, MO, USA), and incubated in the dark for 35 min at 26 °C.[103] H2O2 (20 μM)[124] and miltefosine (22 μM)[125] were used as positive controls. Each experiment was performed in triplicate. Reactive oxygen species (ROS) production was measured as an increase in fluorescence caused by the conversion of nonfluorescent dye to highly fluorescent 2,7-dichlorofluorescein, with an excitation wavelength of 488 nm and an emission wavelength of 530 nm. Plates were read by employing a fluorescence microplate reader Varioskan Flash (Thermo Fisher Scientific Inc.).

[5] = Cytotoxicity test on Vero cells (alamarBlue); assay type: cell-based, African green monkey; conditions: chlorocebus sabaeus, Vero cells (kidney epithelial cell line); 72 h, alamarBlue; read-out: CC50 (50% cytotoxic concentration) on Vero cells
Description: as §1, §2

[6] = system: intramacrophage amastigotes of L. donovani; assay: Amastigote growth inhibition assay in infected THP-1 cells (Giemsa, infectivity index); assay type: cell-based, Leishmania donovani; conditions: for IC50: Leishmania donovani, intracellular amastigotes in THP-1, 72 h, read-out: IC50 against amastigotes of L. donovani
Description: To evaluate the efficacy of the compounds on the intracellular form of L. donovani, human acute monocytic leukemia cell line (THP-1) was infected with L. donovani promastigotes. Cells were harvested and seeded in a 96-well plate (10^5 cells mL^–1) in the complete RPMI 1640 medium, and PMA (0.1 μM, Cayman Chemical Company, Ann Arbor, Michigan, USA) was added for obtaining maturation and cell adherence. Cells were incubated at 37 °C in a 5% CO2 incubator. After 48 h, the medium was replaced with the fresh medium containing stationary-phase promastigotes that were then phagocyted by monocytic cells and transformed into intracellular amastigotes. After 24 h of incubation, newly synthesized compounds were added and the plates were incubated at 37 °C in a 5% CO2 incubator for 72 h. After incubation, wells were washed, fixed, and stained with Giemsa. Staining was detected using a Nikon Eclipse E200 light microscope (Nikon, Tokyo, Japan). The infectivity index (% of infected macrophages × average number of amastigotes per macrophage) was determined by counting at least 100 cells in duplicate cultures.

[7] = THP-1 CC50 / IC50 on amastigotes
[8] = Vero CC50 / IC50 on amastigotes

For `CCCCC1(CCCC)CO[C@@](C)(OC)[C@@H](CNCCCn2ccnc2)C1` (racemic) [3a, N-((5,5-Dibutyl-2-methoxy-2-methyltetrahydro-2H-pyran-3-yl)methyl)-3-(1H-imidazol-1-yl)propan-1-amine], the IC50 [1] was 1.9 µM, the CC50 at 72 h [2] was 26 µM and the “Interaction with the iron chelator DFP (isobologram, FIC)” value [3] was “no antagonism or synergism”. For the same compound, the IC50 [3] was 3.4 ± 0.4 µM, the “Interaction with the iron chelator DFO (isobologram, ΣFIC)” value [3] was “additive effects” and the “Intracellular ROS levels compared to negative control (untreated promastigotes)” value [4] was “increase in the intracellular ROS levels”. The “ROS production compared to positive controls” value [4] was “higher ROS production when compared to H2O2”, the CC50 at 72 h [5] was 35.2 ± 4.7 µM and the IC50 [6] was 3.4 ± 0.6 µM. For the same compound, the “Selectivity index (SI) = CC50/IC50” value [6, 7] was 7.6 and the “Selectivity index (SI) = CC50/IC50” value [6, 8] was 10.3.
For `CCCCC1(CCCC)C[C@H](CNCCCn2ccnc2)[C@](C)(OC)OO1` [2a], the IC50 [1] was 2.7 µM, the CC50 at 72 h [2] was 86 µM and the “Interaction with the iron chelator DFP (isobologram, FIC)” value [3] was “no antagonism or synergism”. The IC50 [3] was 7.5 ± 1.7 µM, the “Interaction with the iron chelator DFO (isobologram, ΣFIC)” value [3] was “additive effects” and the “Intracellular ROS levels compared to negative control (untreated promastigotes)” value [4] was “increase in the intracellular ROS levels”. For the same compound, the “ROS production compared to positive controls” value [4] was “lower fluorescence intensity when compared to H2O2 and miltefosine”, the CC50 at 72 h [5] was 72 ± 6.6 µM and the IC50 [6] was 12.2 ± 1.2 µM. For the same compound, the “Selectivity index (SI) = CC50/IC50” value [6, 7] was 7.0 and the “Selectivity index (SI) = CC50/IC50” value [6, 8] was 5.9.
